Target: T1, Soybean lipoxygenase (Type I-B) (Glycine max, UniProt P08170)
T1 construct: purchased Merck (KGaA, Darmstadt, Germany)
T1 sequence (P08170 1-839): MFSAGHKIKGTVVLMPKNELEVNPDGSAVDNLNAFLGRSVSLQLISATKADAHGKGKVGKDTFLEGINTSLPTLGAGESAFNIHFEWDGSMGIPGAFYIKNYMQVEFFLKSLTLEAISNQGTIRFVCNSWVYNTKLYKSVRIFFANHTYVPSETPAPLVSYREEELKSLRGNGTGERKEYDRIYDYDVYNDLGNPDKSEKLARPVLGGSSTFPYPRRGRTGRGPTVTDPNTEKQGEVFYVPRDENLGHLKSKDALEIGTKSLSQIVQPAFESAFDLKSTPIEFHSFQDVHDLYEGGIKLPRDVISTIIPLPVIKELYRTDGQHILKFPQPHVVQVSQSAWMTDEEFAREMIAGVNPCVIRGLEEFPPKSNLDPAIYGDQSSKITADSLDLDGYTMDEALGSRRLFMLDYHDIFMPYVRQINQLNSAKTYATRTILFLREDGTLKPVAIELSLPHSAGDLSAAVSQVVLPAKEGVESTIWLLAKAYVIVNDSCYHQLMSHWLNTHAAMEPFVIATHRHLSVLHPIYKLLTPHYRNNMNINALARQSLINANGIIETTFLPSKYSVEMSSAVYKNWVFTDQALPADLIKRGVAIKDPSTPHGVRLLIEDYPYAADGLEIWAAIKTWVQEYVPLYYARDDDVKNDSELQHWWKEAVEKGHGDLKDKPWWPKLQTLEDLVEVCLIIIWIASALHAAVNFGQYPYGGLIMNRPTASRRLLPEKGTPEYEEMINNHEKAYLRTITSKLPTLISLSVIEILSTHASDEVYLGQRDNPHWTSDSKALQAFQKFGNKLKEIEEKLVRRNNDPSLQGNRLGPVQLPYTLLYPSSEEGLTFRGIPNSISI
Assay: In vitro LOX inhibition assay
Format: biochemical
Settings: for inhibition at 25 µM / inhibition at 50 µM / inhibition at 100 µM: read-out: Anti-LOX Activity (%); for IC50: sodium linoleate substrate, tris buffer pH 9, read-out: IC50 (µM), in vitro lipoxygenase inhibitory activity
Text: Soybean lipoxygenase (Type I-B) is a very often used enzyme for the investigation of anti-inflammatory properties of compounds [38]. The LOX inhibition assay measures the rate of oxidation of linoleic acid by lipoxygenase, which results in the formation of a colorless product that can be detected spectrophotometrically. This enzyme catalyzes the conversion of linoleic acid into hydroperoxy fatty acids and results in increased absorbance at 234 nm. The tested compounds dissolved in DMSO were incubated at room temperature with sodium linoleate (3 mM in tris buffer pH = 9) and enzyme solution (5 × 10^3 units/mL in saline). The activity for each tested compound was presented as IC50 value ± standard deviation (SD) of three independent measurements.

Structure (SMILES)	inhibition at 25 µM [%]	inhibition at 30 µM [%]	inhibition at 40 µM [%]	inhibition at 50 µM [%]	inhibition at 60 µM (60 µM) [%]	inhibition at 100 µM [%]	IC50 [µM]	inhibition at 20 µM (20 µM) [%]
C/C(NNC(=O)c1ccc(O)c(O)c1O)=C1\C(=O)Oc2ccccc2C1=O [PCH-1, (E)-N′-(1-(2,4-dioxochroman-3-ylidene)ethyl)-2,3,4-trihydroxybenzohydrazide]	32.8 ± 2.4	36.8 ± 2.4	51.4 ± 1.8	65.1 ± 2	84.9 ± 0.1	96.1 ± 0.7	38.1	
C/C(NNC(=O)c1cc(O)c(O)c(O)c1)=C1\C(=O)Oc2ccccc2C1=O [PCH-2, (E)-N′-(1-(2,4-dioxochroman-3-ylidene)ethyl)-3,4,5-trihydroxybenzohydrazide]	38.9 ± 3.1	41.9 ± 1.4	67 ± 0.9	71.7 ± 2.2		95.2 ± 1	34.1	20.7 ± 2.7
